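Method: 48-hour compound exposure of cells in 96-well plates, five concentrations, linear interpolation of endpoints. TGI: concentration producing complete growth inhibition.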
Key:
Assay in all cases: DTP human tumour cell line panel, 48 h
OVCAR-3 ovarian = system: OVCAR-3 ovarian
NCI-H460 lung = system: NCI-H460 lung
CAKI-1 renal = system: CAKI-1 renal
HOP-62 NSCLC = system: HOP-62 NSCLC
MDA-MB-231 breast = system: MDA-MB-231 breast
MOLT-4 leukemia = system: MOLT-4 leukemia
SW-620 colon = system: SW-620 colon
RPMI-8226 leukemia = system: RPMI-8226 leukemia
HCC-2998 colon = system: HCC-2998 colon
TK-10 renal = system: TK-10 renal
LOX IMVI melanoma = system: LOX IMVI melanoma
SF-295 CNS = system: SF-295 CNS
SF-539 CNS = system: SF-539 CNS
SK-MEL-5 melanoma = system: SK-MEL-5 melanoma
UACC-62 melanoma = system: UACC-62 melanoma
MDA-MB-435 = system: MDA-MB-435
EKVX NSCLC = system: EKVX NSCLC
SK-MEL-2 melanoma = system: SK-MEL-2 melanoma
HOP-92 NSCLC = system: HOP-92 NSCLC
UACC-257 melanoma = system: UACC-257 melanoma
SNB-75 CNS = system: SNB-75 CNS
SR leukemia = system: SR leukemia
OVCAR-4 ovarian = system: OVCAR-4 ovarian
OVCAR-5 ovarian = system: OVCAR-5 ovarian
RXF 393 renal = system: RXF 393 renal
T-47D breast = system: T-47D breast
SK-OV-3 ovarian = system: SK-OV-3 ovarian
CCRF-CEM leukemia = system: CCRF-CEM leukemia
M14 melanoma = system: M14 melanoma
COLO 205 colon = system: COLO 205 colon
KM12 colon = system: KM12 colon
HCT-116 colon = system: HCT-116 colon
MCF7 breast = system: MCF7 breast
A498 renal = system: A498 renal
SF-268 CNS = system: SF-268 CNS
U251 CNS = system: U251 CNS
PC-3 prostate = system: PC-3 prostate
SK-MEL-28 melanoma = system: SK-MEL-28 melanoma
A549 NSCLC = system: A549 NSCLC
BT-549 breast = system: BT-549 breast
MDA-N = system: MDA-N
OVCAR-8 ovarian = system: OVCAR-8 ovarian
HCT-15 colon = system: HCT-15 colon
SN12C renal = system: SN12C renal
HL-60(TB) leukemia = system: HL-60(TB) leukemia
ACHN renal = system: ACHN renal
K-562 leukemia = system: K-562 leukemia
NCI/ADR-RES ovarian = system: NCI/ADR-RES ovarian
NCI-H23 lung = system: NCI-H23 lung
786-0 renal = system: 786-0 renal
DU-145 prostate = system: DU-145 prostate
HS 578T breast = system: HS 578T breast
UO-31 renal = system: UO-31 renal
HT29 colon = system: HT29 colon
SNB-19 CNS = system: SNB-19 CNS
NCI-H226 lung = system: NCI-H226 lung
MALME-3M melanoma = system: MALME-3M melanoma
NCI-H522 lung = system: NCI-H522 lung
IGROV1 ovarian = system: IGROV1 ovarian

Measured: TGI

Fc1ccccc1C1SCC2=Nc3ccccc3CN21 (configuration not stated)
not listed: NCI-H226 lung | MALME-3M melanoma | NCI-H522 lung | IGROV1 ovarian
> 100 µM: all other assays above

CNc1ccc([N+](=O)[O-])cc1C(=O)N1CCC[C@H]1CO
not listed: OVCAR-3 ovarian | SF-539 CNS
> 100 µM: all other assays above
